# What was measured:
# [1] = tested on: barnyard grass; assay: Test Example 4: herbicidal effect by soil treatment (Table 19, symbol H); format: in vivo, barnyard grass (Echinochloa crus-galli); details: amount of applied herbicide 320 g/ha
# Method in brief: (§1)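 In this soil treatment, the formulated compound reached the seeds only through the soil: seeds were buried about 1.5 cm deep in sterilized diluvial soil, then the diluted emulsion was sprayed over the surface. After three weeks at 25° C. to 30° C. in a greenhouse, effects were graded on criteria from an earlier test.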
# [2] = tested on: windgrass; assay: Test Example 4: herbicidal effect by soil treatment (Table 19, symbol L); format: in vivo, windgrass (Apera spica-venti); details: amount of applied herbicide 320 g/ha
# Method in brief: as §1
# [3] = tested on: late watergrass; assay: Test Example 1: herbicidal activity, application before weed generation under submerged conditions (Table 16, symbol A); format: in vivo, late watergrass (Echinochloa oryzicola); details: 320 g/ha applied herbicide
# Method in brief: (§2)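 Alluvial soil was flooded to 4 cm depth, weed seeds were sown mixed and 2.5-leaf rice seedlings were transplanted. On sowing day, the compound's emulsion, diluted in water to a set dose, was applied to the water surface. Plants grew at 25–30 °C and were scored 0–5 after three weeks.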
# [4] = tested on: redroot pigweed; assay: Test Example 4: herbicidal effect by soil treatment (Table 19, symbol N); format: in vivo, redroot pigweed (Amaranthus retroflexus); details: amount of applied herbicide 320 g/ha
# Method in brief: as §1
# [5] = tested on: windgrass; assay: Test Example 5: herbicidal effect by foliage application, plastic box (Table 20, symbol L); format: in vivo, windgrass (Apera spica-venti); details: foliage application, AAH 320 g/ha, evaluated three weeks after application
# Method in brief: (§3)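 Plants were sown into sterilized diluvial soil under about 1.5 cm cover and kept in a greenhouse at 25° C. to 30° C. Fourteen days on, foliage received an even spray of the diluted emulsion. Herbicidal or crop effect was judged three weeks afterwards.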
# [6] = tested on: Chinese sprangletop; assay: Test Example 3: herbicidal effect by foliage application, Wagner pot (Table 18, symbol D); format: in vivo, chinese sprangletop (Leptochloa chinensis); details: amount of applied herbicide 320 g/ha
# Method in brief: (§4)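 Plants were sown in alluvial soil held under 0.1–0.5 cm standing water and grown 14 days in a greenhouse at 25–30 °C. An emulsifiable formulation, water-diluted to the set dose, was then sprayed onto the foliage, and effects were scored three weeks later using previously defined criteria.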
# [7] = tested on: southern crabgrass; assay: Test Example 4: herbicidal effect by soil treatment (Table 19, symbol F); format: in vivo, southern crabgrass (Digitaria ciliaris); details: amount of applied herbicide 320 g/ha
# Method in brief: as §1
# [8] = tested on: persian speedwell; assay: Test Example 4: herbicidal effect by soil treatment (Table 19, symbol R); format: in vivo, Persian speedwell (Veronica persica); details: amount of applied herbicide 320 g/ha
# Method in brief: as §1
# [9] = tested on: Italian ryegrass; assay: Test Example 5: herbicidal effect by foliage application, plastic box (Table 20, symbol K); format: in vivo, Italian ryegrass (Lolium multiflorum); details: foliage application, AAH 320 g/ha, evaluated three weeks after application
# Method in brief: as §3
# [10] = tested on: velvetleaf; assay: Test Example 5: herbicidal effect by foliage application, plastic box (Table 20, symbol M); format: in vivo, velvetleaf (Abutilon theophrasti); details: foliage application, AAH 320 g/ha, evaluated three weeks after application
# Method in brief: as §3
# [11] = tested on: rice flat sedge; assay: Test Example 3: herbicidal effect by foliage application, Wagner pot (Table 18, symbol E); format: in vivo, rice flat sedge (Cyperus iria); details: amount of applied herbicide 320 g/ha
# Method in brief: as §4
# [12] = tested on: wild oat; assay: Test Example 4: herbicidal effect by soil treatment (Table 19, symbol I); format: in vivo, wild oat (Avena fatua); details: amount of applied herbicide 320 g/ha
# Method in brief: as §1
# [13] = tested on: redroot pigweed; assay: Test Example 5: herbicidal effect by foliage application, plastic box (Table 20, symbol N); format: in vivo, redroot pigweed (Amaranthus retroflexus); details: foliage application, AAH 320 g/ha, evaluated three weeks after application
# Method in brief: as §3
# [14] = tested on: velvetleaf; assay: Test Example 4: herbicidal effect by soil treatment (Table 19, symbol M); format: in vivo, velvetleaf (Abutilon theophrasti); details: amount of applied herbicide 320 g/ha
# Method in brief: as §1
# [15] = tested on: lambsquarters; assay: Test Example 4: herbicidal effect by soil treatment (Table 19, symbol O); format: in vivo, lambsquarters (Chenopodium album); details: amount of applied herbicide 320 g/ha
# Method in brief: as §1
# [16] = tested on: barnyard grass; assay: Test Example 5: herbicidal effect by foliage application, plastic box (Table 20, symbol H); format: in vivo, barnyard grass (Echinochloa crus-galli); details: foliage application, AAH 320 g/ha, evaluated three weeks after application
# Method in brief: as §3
# [17] = tested on: lambsquarters; assay: Test Example 5: herbicidal effect by foliage application, plastic box (Table 20, symbol O); format: in vivo, lambsquarters (Chenopodium album); details: foliage application, AAH 320 g/ha, evaluated three weeks after application
# Method in brief: as §3
# [18] = tested on: southern crabgrass; assay: Test Example 5: herbicidal effect by foliage application, plastic box (Table 20, symbol F); format: in vivo, southern crabgrass (Digitaria ciliaris); details: foliage application, AAH 320 g/ha, evaluated three weeks after application
# Method in brief: as §3
# [19] = tested on: Italian ryegrass; assay: Test Example 4: herbicidal effect by soil treatment (Table 19, symbol K); format: in vivo, Italian ryegrass (Lolium multiflorum); details: amount of applied herbicide 320 g/ha
# Method in brief: as §1
# [20] = tested on: Japanese bulrush; assay: Test Example 1: herbicidal activity, application before weed generation under submerged conditions (Table 16, symbol B); format: in vivo, Japanese bulrush (Schoenoplectus juncoides); details: 320 g/ha applied herbicide
# Method in brief: as §2
# [21] = tested on: blackgrass; assay: Test Example 5: herbicidal effect by foliage application, plastic box (Table 20, symbol J); format: in vivo, blackgrass (Alopecurus myosuroides); details: foliage application, AAH 320 g/ha, evaluated three weeks after application
# Method in brief: as §3
# [22] = tested on: blackgrass; assay: Test Example 4: herbicidal effect by soil treatment (Table 19, symbol J); format: in vivo, blackgrass (Alopecurus myosuroides); details: amount of applied herbicide 320 g/ha
# Method in brief: as §1
# [23] = tested on: wild oat; assay: Test Example 5: herbicidal effect by foliage application, plastic box (Table 20, symbol I); format: in vivo, wild oat (Avena fatua); details: foliage application, AAH 320 g/ha, evaluated three weeks after application
# Method in brief: as §3
# [24] = tested on: green foxtail; assay: Test Example 5: herbicidal effect by foliage application, plastic box (Table 20, symbol G); format: in vivo, green foxtail (Setaria viridis); details: foliage application, AAH 320 g/ha, evaluated three weeks after application
# Method in brief: as §3
# [25] = tested on: chickweed; assay: Test Example 4: herbicidal effect by soil treatment (Table 19, symbol P); format: in vivo, common chickweed (Stellaria media); details: amount of applied herbicide 320 g/ha
# Method in brief: as §1
# [26] = tested on: barnyard grass; assay: Test Example 3: herbicidal effect by foliage application, Wagner pot (Table 18, symbol H); format: in vivo, barnyard grass (Echinochloa crus-galli); details: amount of applied herbicide 320 g/ha
# Method in brief: as §4
# [27] = tested on: persian speedwell; assay: Test Example 5: herbicidal effect by foliage application, plastic box (Table 20, symbol R); format: in vivo, Persian speedwell (Veronica persica); details: foliage application, AAH 320 g/ha, evaluated three weeks after application
# Method in brief: as §3
# [28] = tested on: chickweed; assay: Test Example 5: herbicidal effect by foliage application, plastic box (Table 20, symbol P); format: in vivo, common chickweed (Stellaria media); details: foliage application, AAH 320 g/ha, evaluated three weeks after application
# Method in brief: as §3
# [29] = tested on: oval-leafed pondweed; assay: Test Example 1: herbicidal activity, application before weed generation under submerged conditions (Table 16, symbol C); format: in vivo, oval-leafed pondweed (Monochoria vaginalis); details: 320 g/ha applied herbicide
# Method in brief: as §2
# [30] = tested on: green foxtail; assay: Test Example 4: herbicidal effect by soil treatment (Table 19, symbol G); format: in vivo, green foxtail (Setaria viridis); details: amount of applied herbicide 320 g/ha
# Method in brief: as §1
SMILES,herbicidal effect on H: barnyard grass [1],herbicidal effect on L: windgrass [2],Herbicidal effect on A: late watergrass (grade 0-5) [3],herbicidal effect on N: redroot pigweed [4],"L: windgrass, herbicidal effect (criteria 0-5) [5]",herbicidal effect on D: Chinese sprangletop [6],herbicidal effect on F: southern crabgrass [7],herbicidal effect on R: persian speedwell [8],"K: Italian ryegrass, herbicidal effect (criteria 0-5) [9]","M: velvetleaf, herbicidal effect (criteria 0-5) [10]",herbicidal effect on E: rice flat sedge [11],herbicidal effect on I: wild oat [12],"N: redroot pigweed, herbicidal effect (criteria 0-5) [13]",herbicidal effect on M: velvetleaf [14],herbicidal effect on O: lambsquarters [15],"H: barnyard grass, herbicidal effect (criteria 0-5) [16]","O: lambsquarters, herbicidal effect (criteria 0-5) [17]","F: southern crabgrass, herbicidal effect (criteria 0-5) [18]",herbicidal effect on K: Italian ryegrass [19],Herbicidal effect on B: Japanese bulrush (grade 0-5) [20],further results
CC(=O)COc1cccc(-c2sc3ccc(F)cc3c2-c2c(O)c(C)nn(C)c2=O)c1 [2-275],3 (Herbicidal rate of 40% or more and less than 70%),0 (Herbicidal rate of 5% or less (almost no effect)),3 (Herbicidal rate of 40% or more and less than 70%),4 (Herbicidal rate of 70% or more and less than 90%),0 (Herbicidal rate of 5% or less (almost no effect)),0 (Herbicidal rate of 5% or less (almost no effect)),5 (Herbicidal rate of 90% or more (almost completely withered)),3 (Herbicidal rate of 40% or more and less than 70%),0 (Herbicidal rate of 5% or less (almost no effect)),3 (Herbicidal rate of 40% or more and less than 70%),0 (Herbicidal rate of 5% or less (almost no effect)),0 (Herbicidal rate of 5% or less (almost no effect)),4 (Herbicidal rate of 70% or more and less than 90%),1 (Herbicidal rate of 5% or more and less than 20%),2 (Herbicidal rate of 20% or more and less than 40%),3 (Herbicidal rate of 40% or more and less than 70%),2 (Herbicidal rate of 20% or more and less than 40%),5 (Herbicidal rate of 90% or more (almost completely withered)),0 (Herbicidal rate of 5% or less (almost no effect)),3 (Herbicidal rate of 40% or more and less than 70%),"J: blackgrass, herbicidal effect (criteria 0-5) [21]: 0 (Herbicidal rate of 5% or less (almost no effect)); herbicidal effect on J: blackgrass [22]: 0 (Herbicidal rate of 5% or less (almost no effect)); I: wild oat, herbicidal effect (criteria 0-5) [23]: 0 (Herbicidal rate of 5% or less (almost no effect)); G: green foxtail, herbicidal effect (criteria 0-5) [24]: 4 (Herbicidal rate of 70% or more and less than 90%); herbicidal effect on P: chickweed [25]: 0 (Herbicidal rate of 5% or less (almost no effect)); herbicidal effect on H: barnyard grass [26]: 3 (Herbicidal rate of 40% or more and less than 70%); R: persian speedwell, herbicidal effect (criteria 0-5) [27]: 5 (Herbicidal rate of 90% or more (almost completely withered)); P: chickweed, herbicidal effect (criteria 0-5) [28]: 5 (Herbicidal rate of 90% or more (almost completely withered)); Herbicidal effect on C: oval-leafed pondweed (grade 0-5) [29]: 3 (Herbicidal rate of 40% or more and less than 70%); herbicidal effect on G: green foxtail [30]: 4 (Herbicidal rate of 70% or more and less than 90%)"
Cc1nn(C)c(=O)c(-c2c(-c3ccc(CSC(C)C)cc3)sc3ccc(F)cc23)c1O [2-321],3 (Herbicidal rate of 40% or more and less than 70%),0 (Herbicidal rate of 5% or less (almost no effect)),3 (Herbicidal rate of 40% or more and less than 70%),4 (Herbicidal rate of 70% or more and less than 90%),5 (Herbicidal rate of 90% or more (almost completely withered)),3 (Herbicidal rate of 40% or more and less than 70%),3 (Herbicidal rate of 40% or more and less than 70%),5 (Herbicidal rate of 90% or more (almost completely withered)),4 (Herbicidal rate of 70% or more and less than 90%),5 (Herbicidal rate of 90% or more (almost completely withered)),5 (Herbicidal rate of 90% or more (almost completely withered)),0 (Herbicidal rate of 5% or less (almost no effect)),5 (Herbicidal rate of 90% or more (almost completely withered)),1 (Herbicidal rate of 5% or more and less than 20%),3 (Herbicidal rate of 40% or more and less than 70%),4 (Herbicidal rate of 70% or more and less than 90%),5 (Herbicidal rate of 90% or more (almost completely withered)),5 (Herbicidal rate of 90% or more (almost completely withered)),0 (Herbicidal rate of 5% or less (almost no effect)),3 (Herbicidal rate of 40% or more and less than 70%),"J: blackgrass, herbicidal effect (criteria 0-5) [21]: 4 (Herbicidal rate of 70% or more and less than 90%); herbicidal effect on J: blackgrass [22]: 0 (Herbicidal rate of 5% or less (almost no effect)); I: wild oat, herbicidal effect (criteria 0-5) [23]: 3 (Herbicidal rate of 40% or more and less than 70%); G: green foxtail, herbicidal effect (criteria 0-5) [24]: 5 (Herbicidal rate of 90% or more (almost completely withered)); herbicidal effect on P: chickweed [25]: 0 (Herbicidal rate of 5% or less (almost no effect)); herbicidal effect on H: barnyard grass [26]: 5 (Herbicidal rate of 90% or more (almost completely withered)); R: persian speedwell, herbicidal effect (criteria 0-5) [27]: 5 (Herbicidal rate of 90% or more (almost completely withered)); P: chickweed, herbicidal effect (criteria 0-5) [28]: 5 (Herbicidal rate of 90% or more (almost completely withered)); Herbicidal effect on C: oval-leafed pondweed (grade 0-5) [29]: 0 (Herbicidal rate of 5% or less (almost no effect)); herbicidal effect on G: green foxtail [30]: 4 (Herbicidal rate of 70% or more and less than 90%)"
